# Laboratory results: US11180528B2 (priority 2018, dated 2021)
# Entries after “also recorded” stand apart in the source; their conditions may differ. Read-outs that look alike come from different tables or passages of the source. Ends that are not written are not given here.
# Assays:
# [1] = system: F. tularensis LVS
# [2] = system: F. tularensis NIH B38
# [3] = system: F. tularensis LVS; remark: listed apart in the source
# [4] = system: F. tularensis tularensis SchuS4
# [5] = system: F. tularensis LVS; details: mouse, in vivo; cited from earlier work
# [6] = system: F. tularensis LVS; details: mouse, in vivo
# [7] = system: A549 human lung epithelial cells
# [8] = system: G. mellonella larvae; details: in vivo
# [9] = system: F. tularensis tularensis SchuS4; remark: listed apart in the source
# [10] = system: F. tularensis LVS; type: cell-based, Francisella tularensis subsp. holarctica
# [11] = system: E. coli LPS; type: binding
# [12] = system: F. tularensis LVS; type: cell-based, Francisella tularensis subsp. holarctica; remark: listed apart in the source
# [13] = system: F. tularensis LVS; set-up: species or system Galleria mellonella; details: in vivo
# [14] = system: F. tularensis LVS LPS; type: binding, Francisella tularensis subsp. holarctica
Molecule,EC50 (95% CI) [μg/ml] [1],EC50 ([1]; 3 h) [µM],EC50 (95% CI) [μg/ml] [2],EC50 ([2]; 3 h) [µM],MIC / inhibitory activity in broth [3],EC50 [4] [µM],MIC [9] [µg/mL],EC50 (95% CI) ([1]; 3 h) [µg/mL],further results
KTRNWFSQHFKKVKQKLKNTFA [GATR-2],2.4 (1.5-3.7) μg/ml,0.86,11 (7.7-15) μg/ml,3.9,inactive,–,–,–,–
CC[C@H](C)[C@H](NC(=O)[C@H](CCCCN)NC(=O)[C@H](CCC(=O)O)NC(=O)[C@H](CCCCN)NC(=O)[C@H](CO)NC(=O)[C@H](CCCCN)NC(=O)[C@H](CCCNC(=N)N)NC(=O)[C@H](Cc1ccccc1)NC(=O)[C@H](Cc1ccccc1)NC(=O)[C@H](CC(=O)O)NC(=O)CNC(=O)[C@H](CC(C)C)NC(=O)[C@@H](N)CC(C)C)C(=O)NCC(=O)N[C@@H](CCCCN)C(=O)N[C@@H](CCC(=O)O)C(=O)N[C@@H](Cc1ccccc1)C(=O)N[C@@H](CCCCN)C(=O)N[C@@H](CCCNC(=N)N)C(=O)N[C@H](C(=O)N[C@H](C(=O)N[C@@H](CCC(N)=O)C(=O)N[C@@H](CCCNC(=N)N)C(=O)N[C@H](C(=O)N[C@@H](CCCCN)C(=O)N[C@@H](CC(=O)O)C(=O)N[C@@H](Cc1ccccc1)C(=O)N[C@@H](CC(C)C)C(=O)N[C@@H](CCCNC(=N)N)C(=O)N[C@@H](CC(N)=O)C(=O)N[C@@H](CC(C)C)C(=O)N[C@H](C(=O)N1CCC[C@H]1C(=O)N[C@@H](CCCNC(=N)N)C(=O)N[C@H](C(=O)N[C@@H](CCC(=O)O)C(=O)N[C@@H](CO)C(=O)O)[C@@H](C)O)C(C)C)[C@@H](C)CC)C(C)C)[C@@H](C)CC [LL-37],0.21 (0.14-0.31) μg/ml,0.047,0.13 (0.076-0.21) μg/ml,0.028,–,0.125,–,–,"EC50 (95% CI) [μg/ml] [4]: 0.562 (0.195 to 1.61) μg/ml; EC50 (95% CI) [1]: 0.209 µg/mL; mean time till death and survival [5]: extended mean time till death but did not increase survival; also recorded: significantly extended mean time to death, but did not ultimately rescue any mice; severity of signs of disease (health scores) [6]: nor did these peptides lessen signs of disease"
KFRNWFSEHFKKFKEKLKDTFA [GATR-1],0.76 (0.54-1.1) μg/ml,0.26,16 (9.5-27) μg/ml,5.62,inactive,–,–,–,–
RWRNWWSQRWRRWRQRLRNTWA [GATR-7],–,0.32,–,0.53,–,7.47,41.7,–,suppression of cell proliferation [7]: some statistically significant suppression of cell proliferation; death of larvae (toxicity) [8]: not found to have significant death; inhibition ([3]; 41.5 μg/ml): 85%
KTRNWFSEHFKKVKEKLKDTFA [Apo6],6.8 (5.9-7.8) μg/ml,2.5,16 (8.6-31) μg/ml,5.89,no observable MIC,–,–,~6,dissipation of membrane potential [10]: dissipated the membrane potential; EC50 [μM] [4]: Not active; LPS binding [11]: did not bind; EC50 (95% CI) [1]: 6.82 µg/mL; pore formation (change in RFU) [12]: significant pore formation; also recorded: significant membrane disruption; efficacy in murine studies [6]: not reliably effective; EC50 (95% CI) [2]: 16.3 µg/mL; EC50 (95% CI) ([2]; 3 h): ~16 µg/mL; survival of infected larvae [13]: 60%; LPS binding [14]: does not significantly bind
KFRNWFSQHWKKWKQKLKNTWA [GATR-5],–,0.26,–,0.65,–,–,–,–,survival of larvae (toxicity) [8]: 30%
KFRNWFSQHFKKFKQKLKNTFA [GATR-3],–,0.19,–,0.28,–,10,>83.3,–,–
NPKTRNWFSEHFKKVKEKLKDTFA [GATR-4],–,3.7,–,–,inactive,–,–,11.0,EC50 [μM] [2]: Not active
KFRNWFSQHWRRWRQRLRNTWA [GATR-6],–,0.29,–,0.051,–,10.4,>83.3,–,mean time till death (MTD) [6]: 6 days
"FSTKTRNWFSEHFKKVKEKLKDTFA [Apo5, reference compound]",–,–,–,–,–,–,–,~6,EC50 (95% CI) ([2]; 3 h): ~16 µg/mL
